The values that follow come from article PMC10049354, “Anti-Inflammatory Effects and Photo- and Neuro-Protective Properties of BIO203, a New Amide Conjugate of Norbixin, in Development for the Treatment of Age-Related Macular Degeneration (AMD)” (International Journal of Molecular Sciences, 2023).

Each structure is given as a SMILES string.

The test system of data set [1] is primary porcine RPE cells. The data set is described as follows: RPE phototoxicity: photoprotection of RPE cells exposed to A2E and blue light. In kind it is cell-based, pig. Conditions: all concentrations from 10 to 20 μM; A2E 30 μM + blue light. As to the method:
RPE cells were obtained from pig eyes, as previously described. RPE cells were seeded on a 96-well plate at a density of 1.5 × 10^5 cells/cm^2 in DMEM 2% FCS. BIO201, BIO203, or its pure enantiomers were added in increasing concentrations to the culture medium 48 h before illumination. A2E was added to the medium at a final concentration of 30 μM, and 19 h later, blue-light illumination was performed for 50 min using a 96 blue-led device (Durand, St Clair de la Tour, France) emitting at 470 nm (1440 mcd, 8.6 mA). Just before illumination, the culture medium was replaced by a modified DMEM without any photosensitizer and with 2% FCS. Twenty-four hours after blue-light irradiation, all cell nuclei were stained with Hoechst 33342, and nuclei of dead cells with ethidium homodimer 2, fixed with paraformaldehyde (4% in PBS, 10 min) and 9 pictures per well were captured using a fluorescence microscope (Nikon TiE) equipped with a CoolSNAP HQ2 camera and driven by Metamorph Premier On-Line program. Quantification of live cells was performed using Metamorph Premier Off-Line and a homemade program by subtraction of dead cells from all cells. For cytokines mRNA analysis, RPE cells were seeded in 24-well plates and left untreated or treated with A2E or BIO203 alone or A2E plus BIO203. After 48 h, cells were lysed using the lysis buffer from the NucleoSpin® RNA kit, and the samples were stored at −80 °C.

Data set [2] deals with albino rats exposed to blue-light-induced photoreceptor degeneration. The experiment in a line: Blue-light damage (BLD) study in albino rats: ERG. In kind it is in vivo, rat. Conditions: 50 mg/kg, four IP administrations; positive controls. On the procedure: The ERG in rats was performed using the electrophysiological system RETI-animal® from Roland Consult. ERG was recorded on both eyes from overnight dark-adapted animals. Rats were anesthetized by an intramuscular injection of a mix of Rompun® (xylazine)/Imalgene® (ketamine) before ERG measurement. Ten to fifteen minutes before measurement, one drop of Mydriaticum® (0.5% tropicamide) was instilled for pupillary dilatation. The A-wave and B-wave implicit times (ms) and amplitudes (µV) were measured for each ERG. The B-wave amplitude (value and %) was given as informative data. ERG parameters: Ganzfeld Q450C, Color: white maximum, Maximum intensity: 3 cd/m^2 (0 dB); Duration 0.24 ms; number of flashes: 1, Filter: 50 Hz, Impedance threshold: 50 kΩ. For scotopic ERGs, the A-wave amplitudes were measured from the baseline to the peak of the negative potential, whereas B-wave amplitudes were measured from the trough of the A-wave to the peak of the positive potential. The recordings obtained from these analyses were tabulated and normalized (%) for each eye. Group means, standard deviation, and median values were calculated, considering each eye from one animal as a separate value. ERG recordings in mice were performed as previously described.
(§1) Sixty-four animals were selected based on good health and on scotopic electroretinogram performed before induction when the A-wave amplitude of both eyes was in the range of the global mean (all animals) of A-wave amplitude ± 1.96 SD. Animals were then randomized into the study groups using a macro function in Excel® software based on the A-wave amplitude of both eyes (mean value). On Day 0, BIO203, negative controls, and comparator (N-tert-Butyl-a-phenylnitrone (PBN)) were intraperitoneally injected using a 25 G needle in rats that have been dark-adapted for 36 h. Individually housed rats were then exposed for 6 h (±5 min) to a continuous blue, fluorescent light (400–540 nm) in clear plastic cages. After exposure and administration, the rats were placed in a dark room for 24 h (±1 h) and then were returned to rearing cyclic light conditions.

For data set [3] the test system is unchanged. The data set is described as follows: Blue-light damage (BLD) study in albino rats: retinal histology (photoreceptor layers). The format is in vivo, rat. Conditions: 50 mg/kg, four IP administrations; 6 h blue-light exposure; p < 0.0001. As to the method: At the end of the measurement period on Day 7, rats were euthanized by an intraperitoneal injection of pentobarbital. Immediately after euthanasia, both eyeballs were sampled, fixed in Davidson’s solution, and processed for histology. Sections (5 to 7 µm thick) were performed along the vertical meridian and stained with Haematoxylin/Eosin stain. The vertical meridian included the optic nerve. […] The thickness of the outer nuclear layer was measured on each point. […] Histology and photoreceptor counting in mice were performed as previously described.
as §1

As for `CO[C@@H]1CCCN(C(=O)/C=C/C(C)=C/C=C/C(C)=C/C=C/C=C(C)/C=C/C=C(C)\C=C\C(=O)O)C1` [BIO203-R], the “protective activity compared with BIO203 (racemate)” value in data set [1] is reported as “same protective activity as BIO203”.
The same measure, in the same setting: under `CO[C@H]1CCCN(C(=O)/C=C/C(C)=C/C=C/C(C)=C/C=C/C=C(C)/C=C/C=C(C)\C=C\C(=O)O)C1` [BIO203-S] stands “same protective activity as BIO203”.
Consider `CC(C)(C)[N+]([O-])=Cc1ccccc1` [PBN, N-tert-Butyl-a-phenylnitrone, reference compound], for which the “effect on visual function (ERG A-wave and B-wave)” value in data set [2] is recorded as “protected the visual functions”. Besides, the “preservation of retinal structure (photoreceptor layers)” value in data set [3] is “partially preserved the retinal structure”.
